Columns and labels:
Type in all cases: cell-based
[1] = biological target: T1, transient receptor potential vanilloid 1 (TRPV1) (Rattus norvegicus, UniProt O35433); assay: whole-cell patch clamp in rat DRG neurons, capsaicin concentration-response ([…])
T1 construct: native channel in rat DRG neurons

[2] = biological target: T1, transient receptor potential vanilloid 1 (TRPV1); assay: whole-cell patch clamp of capsaicin-induced TRPV1 currents in rat DRG neurons; capsaicin concentration curves with and without C9
Excerpt: whole-cell patch clamp of capsaicin-induced TRPV1 currents in rat DRG neurons; capsaicin concentration curves with and without C9 on transient receptor potential vanilloid 1 (TRPV1) | Concentration dependence curve of the inhibition on CAP-induced TRPV1 currents of C9.

[3] = biological target: T1, transient receptor potential vanilloid 1 (TRPV1); assay: whole-cell patch clamp of capsaicin-induced currents in rat DRG neurons, single concentration ([…])

T1 sequence (O35433 whole entry): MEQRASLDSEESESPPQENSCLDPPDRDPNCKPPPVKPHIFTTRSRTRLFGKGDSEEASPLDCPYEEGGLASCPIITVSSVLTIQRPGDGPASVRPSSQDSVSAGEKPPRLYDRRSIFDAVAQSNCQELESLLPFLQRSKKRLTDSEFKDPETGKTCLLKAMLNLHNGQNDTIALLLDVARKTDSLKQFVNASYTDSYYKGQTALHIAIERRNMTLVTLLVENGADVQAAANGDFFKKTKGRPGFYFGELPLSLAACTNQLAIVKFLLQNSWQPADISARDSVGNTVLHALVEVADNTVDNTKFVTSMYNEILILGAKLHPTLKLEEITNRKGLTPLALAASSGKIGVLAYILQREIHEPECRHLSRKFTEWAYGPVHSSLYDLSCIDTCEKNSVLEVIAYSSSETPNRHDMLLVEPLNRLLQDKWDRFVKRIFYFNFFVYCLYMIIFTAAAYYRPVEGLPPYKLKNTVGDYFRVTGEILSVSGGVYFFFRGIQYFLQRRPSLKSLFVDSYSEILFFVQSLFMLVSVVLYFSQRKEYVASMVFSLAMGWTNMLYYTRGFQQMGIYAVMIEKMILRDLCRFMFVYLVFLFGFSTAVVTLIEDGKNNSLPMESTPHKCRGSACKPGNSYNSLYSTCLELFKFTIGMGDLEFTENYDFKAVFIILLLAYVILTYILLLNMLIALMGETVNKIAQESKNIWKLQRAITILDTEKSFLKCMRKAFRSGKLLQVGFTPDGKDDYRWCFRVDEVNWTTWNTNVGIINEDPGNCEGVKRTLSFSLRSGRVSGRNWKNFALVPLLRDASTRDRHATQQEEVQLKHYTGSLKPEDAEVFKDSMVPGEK

COc1cc(CNC(=O)CCCC/C=C/C(C)C)ccc1O [capsaicin]
whole-cell patch clamp in rat DRG neurons, capsaicin concentration-response (0.0) [1]: Concentration dependent curves of TRPV1 currents induced by CAP in the presence or absence of C9.

C[C@@H]1O[C@@H](O[C@H]2[C@H](O)[C@@H](O)[C@H](OC[C@H]3O[C@@H](OC(=O)[C@]45CCC(C)(C)C[C@H]4C4=CC[C@@H]6[C@@]7(C)CC[C@H](O[C@@H]8OC[C@H](O)[C@H](O)[C@H]8O)[C@@](C)(CO)[C@@H]7CC[C@@]6(C)[C@]4(C)CC5)[C@H](O)[C@@H](O)[C@@H]3O)O[C@@H]2CO)[C@H](O)[C@H](O)[C@H]1O [Compound 9, hederasaponin D]
EC50 [2]: 0.0369 ± 0.0044 µM

Oc1cc2c(cc1O)CN(C(=S)NCCc1ccc(Cl)cc1)CCC2 [capsazepine]
whole-cell patch clamp of capsaicin-induced currents in rat DRG neurons, single [3]: The recorded current was almost completely suppressed by capsazepine (CPZ), proving that it was the CAP-induced TRPV1 current.

— PMC10613692, “Central and peripheral analgesic active components of triterpenoid saponins from Stauntonia chinensis and their action mechanism” (Frontiers in Pharmacology, 2023)
